# Results taken from paper PMC8057513, “Comparison of edible brown algae extracts for the inhibition of intestinal carbohydrate digestive enzymes involved in glucose release from the diet” (Journal of Nutritional Science, 2021).
# Key:
# Format in all cases: biochemical
# [1] = target: T1, maltase (rat intestinal α-glucosidase); experiment: maltose hydrolysis, released glucose by HPAEC-PAD; Dixon plot; settings: maltose 1.25-5 mM, pH 6.9, 37 °C; competitive; crude intestinal extract
# T1 construct: gene Mgam; crude phosphate-buffer supernatant of rat intestinal acetone powder (Sigma-Aldrich, labelled EC 3.2.1.48), not purified; maltose-hydrolysing activity of mixed brush-border alpha-glucosidases
# From the text: maltose hydrolysis, released glucose by HPAEC-PAD; Dixon plot on maltase (rat intestinal α-glucosidase)
# [2] = target: T1, maltase (rat intestinal α-glucosidase); experiment: maltose hydrolysis, released glucose by HPAEC-PAD; settings: 10 mM maltose, phosphate buffer 100 mM pH 6.9, 37 °C, 30 min; crude intestinal extract
# From the text: maltose hydrolysis, released glucose by HPAEC-PAD on maltase (rat intestinal α-glucosidase)
# [3] = test system: T1, maltase (rat intestinal α-glucosidase); experiment: maltose hydrolysis, released glucose by HPAEC-PAD; Lineweaver-Burk plot; settings: phosphate buffer 100 mM pH 6.9, 37 °C; crude intestinal extract
Structure (SMILES),Ki [1],IC50 [2],Km [3]
C[C@H]1O[C@H](O[C@H]2[C@H](O)[C@@H](O)[C@@H](O[C@H]3[C@H](O)[C@@H](O)C(O)O[C@@H]3CO)O[C@@H]2CO)[C@H](O)[C@@H](O)[C@@H]1N[C@H]1C=C(CO)[C@@H](O)[C@H](O)[C@H]1O (stereo partly drawn) [Acarbose],0.07 µg/mL,0.15 ± 0.02 µg/mL,–
OC[C@H]1O[C@H](O[C@H]2[C@H](O)[C@@H](O)C(O)O[C@@H]2CO)[C@H](O)[C@@H](O)[C@@H]1O (stereo partly drawn) [maltose],–,–,5.8 mM
